Experimental data reported in publication PMC7993727, “Discovery of a novel AR/HDAC6 dual inhibitor for prostate cancer treatment” (Aging (Albany NY), 2021).

Assays:
HDAC6 = molecular target: T1, HDAC6 (Homo sapiens, UniProt Q9UBN7); experiment: acetylation of α-tubulin (HDAC6 substrate) in VCaP cells, Western blot; format: cell-based; details: 24 hours
T1 sequence (Q9UBN7 1-1215): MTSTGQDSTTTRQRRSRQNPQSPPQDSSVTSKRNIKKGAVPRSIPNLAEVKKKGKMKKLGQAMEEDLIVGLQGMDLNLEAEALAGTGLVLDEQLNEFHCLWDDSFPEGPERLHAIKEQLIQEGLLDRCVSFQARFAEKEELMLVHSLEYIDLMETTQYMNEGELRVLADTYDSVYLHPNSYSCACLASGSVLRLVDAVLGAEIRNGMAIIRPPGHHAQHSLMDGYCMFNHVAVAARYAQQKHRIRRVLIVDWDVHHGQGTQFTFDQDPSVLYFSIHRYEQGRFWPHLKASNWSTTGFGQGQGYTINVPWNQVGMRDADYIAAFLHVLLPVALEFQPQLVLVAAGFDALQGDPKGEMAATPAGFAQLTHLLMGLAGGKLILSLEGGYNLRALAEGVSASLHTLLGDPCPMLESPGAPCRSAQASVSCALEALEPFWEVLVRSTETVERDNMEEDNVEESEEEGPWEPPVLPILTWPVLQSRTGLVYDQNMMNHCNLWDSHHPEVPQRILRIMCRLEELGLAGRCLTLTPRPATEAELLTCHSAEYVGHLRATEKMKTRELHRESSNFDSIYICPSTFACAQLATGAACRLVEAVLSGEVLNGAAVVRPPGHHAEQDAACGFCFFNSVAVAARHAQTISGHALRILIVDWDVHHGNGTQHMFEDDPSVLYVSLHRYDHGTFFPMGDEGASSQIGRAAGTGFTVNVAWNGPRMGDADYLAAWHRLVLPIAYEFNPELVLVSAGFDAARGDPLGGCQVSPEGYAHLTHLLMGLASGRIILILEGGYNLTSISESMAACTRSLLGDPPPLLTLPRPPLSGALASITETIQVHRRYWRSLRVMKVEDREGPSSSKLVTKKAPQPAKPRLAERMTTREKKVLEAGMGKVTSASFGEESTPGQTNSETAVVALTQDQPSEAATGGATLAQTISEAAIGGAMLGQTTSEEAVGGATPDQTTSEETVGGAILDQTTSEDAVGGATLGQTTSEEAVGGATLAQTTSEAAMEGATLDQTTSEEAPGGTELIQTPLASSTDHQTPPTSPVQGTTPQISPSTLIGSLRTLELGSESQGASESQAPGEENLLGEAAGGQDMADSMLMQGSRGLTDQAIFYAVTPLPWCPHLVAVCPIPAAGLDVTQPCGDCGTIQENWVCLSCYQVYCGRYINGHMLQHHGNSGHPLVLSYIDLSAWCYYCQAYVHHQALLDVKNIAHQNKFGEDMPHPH
Protocol: (§1) RNA expression level was analyzed by qRT-PCR and protein expression level was analyzed by Western blot. […] (I) Representative immunofluorescence microscopic images of VCaP cells for checking the subcellular localization of AR.
To evaluate the HDAC6 inhibition ability of Zeta55 in VCaP cells, the acetylation status of α-tubulin protein (a HDAC6 substrate) was assessed using western blot. […] We assessed the protein level of AR in VCaP cells.
The whole-cell extracts were prepared in lysis buffer with a protease inhibitor cocktail (Bimake), while the xenograft tissue extracts were prepared in 0.5% Nonidet P 40 Substitute solution (Biosharp) with cocktail protease inhibitor (Bimake). Each sample containing 30 μg of total protein was loaded onto 10% SDS-PAGE and electrotransferred onto polyvinylidene fluoride membranes. The membranes were blocked with 5% skimmed milk in PBST at room temperature for 2 hours and incubated with primary antibodies at 4° C overnight. After the membranes were washed with PBST three times, they were incubated with horseradish peroxidase-conjugated anti-rabbit or anti-mouse secondary antibody at room temperature for 1 hour. Chemiluminescent detection was performed with WesternBright ECL (Advansta). The immunoblots were visualized using the FluorChem FC3 system (ProteinSimple).

PSA = PSA mRNA (qRT-PCR) and protein (Western blot) expression in VCaP cells; format: cell-based; details: 10 nM DHT, 24 hours
Protocol: as §1
(§2) The RNA of VCaP cells was extracted using a Simply P Total RNA Extraction kit (Bioer technology) and cDNA was synthesized using a SMARTer PCR cDNA Synthesis Kit (Clontech). PSA and β-actin primers were synthesized by Sangon Biotech according to previous literature. Real-time PCR was performed using the PowerUp SYBR™ Green kit (ThermoFisher). The PCR program was run on a LightCycler 480II (Roche) and set as follows: 2 minutes at 95° C followed by 40 cycles of 30 seconds at 95° C, 15 seconds at 60° C and 30 seconds at 72° C. Data were quantified using the 2-ΔΔCt method based on the Ct values of PSA and β-actin from two parallel experiments performed in triplicate.
(§3) The whole-cell extracts were prepared in lysis buffer with a protease inhibitor cocktail (Bimake), while the xenograft tissue extracts were prepared in 0.5% Nonidet P 40 Substitute solution (Biosharp) with cocktail protease inhibitor (Bimake). Each sample containing 30 μg of total protein was loaded onto 10% SDS-PAGE and electrotransferred onto polyvinylidene fluoride membranes. […]

[1] = parameters: method as in PMID 27590197; details: rats; cited from earlier work
TMPRSS2 = TMPRSS2 mRNA (qRT-PCR) and protein (Western blot) expression in VCaP cells; format: cell-based; details: 10 nM DHT, 24 hours
Protocol: as §1, §2, §3

CNC(=O)c1ccc(N2C(=S)N(c3ccc(C#N)c(C(F)(F)F)c3)C(=O)C2(C)C)cc1F [MDV3100, reference compound]
α-tubulin acetylation (HDAC6): did not
DHT-induced endogenous mRNA and protein expression of PSA (PSA): significantly suppressed
oral bioavailability [1]: 97%
plasma half-life [1]: 8.56 h
DHT-induced endogenous mRNA and protein expression of TMPRSS2 (TMPRSS2): significantly suppressed
